# Experimental data from ChEMBL document CHEMBL1140941 (J Med Chem, 2009).
# Active and inactive are the calls of the source. The rule behind the calls is not given here.
# Tests used:
# [1] = target: T1, Peroxisome proliferator-activated receptor delta (Homo sapiens) (UniProt Q03181); assay: Agonist activity at PPARdelta expressed in african green monkey CV1 cells co-expressing MH100 by luciferase reporter gene assay; assay type: functional, cell-based; conditions: CV-1
# T1 sequence (whole entry): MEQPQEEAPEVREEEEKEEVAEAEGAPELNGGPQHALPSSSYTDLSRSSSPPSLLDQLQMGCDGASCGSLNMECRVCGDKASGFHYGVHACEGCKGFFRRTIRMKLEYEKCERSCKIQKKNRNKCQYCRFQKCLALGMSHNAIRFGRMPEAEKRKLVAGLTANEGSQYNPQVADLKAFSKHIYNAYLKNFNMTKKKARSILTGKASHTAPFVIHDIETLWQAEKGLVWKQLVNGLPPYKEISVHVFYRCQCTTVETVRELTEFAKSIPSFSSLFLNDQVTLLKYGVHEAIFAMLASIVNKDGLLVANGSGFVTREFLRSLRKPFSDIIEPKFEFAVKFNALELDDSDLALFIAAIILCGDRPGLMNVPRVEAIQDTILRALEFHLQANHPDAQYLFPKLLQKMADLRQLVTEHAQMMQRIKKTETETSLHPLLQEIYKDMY
# [2] = target: T2, Peroxisome proliferator-activated receptor gamma (Homo sapiens) (UniProt P37231); assay: Agonist activity at PPARgamma expressed in african green monkey CV1 cells co-expressing PPRE by luciferase reporter gene assay; assay type: functional, cell-based; conditions: CV-1
# T2 sequence (whole entry): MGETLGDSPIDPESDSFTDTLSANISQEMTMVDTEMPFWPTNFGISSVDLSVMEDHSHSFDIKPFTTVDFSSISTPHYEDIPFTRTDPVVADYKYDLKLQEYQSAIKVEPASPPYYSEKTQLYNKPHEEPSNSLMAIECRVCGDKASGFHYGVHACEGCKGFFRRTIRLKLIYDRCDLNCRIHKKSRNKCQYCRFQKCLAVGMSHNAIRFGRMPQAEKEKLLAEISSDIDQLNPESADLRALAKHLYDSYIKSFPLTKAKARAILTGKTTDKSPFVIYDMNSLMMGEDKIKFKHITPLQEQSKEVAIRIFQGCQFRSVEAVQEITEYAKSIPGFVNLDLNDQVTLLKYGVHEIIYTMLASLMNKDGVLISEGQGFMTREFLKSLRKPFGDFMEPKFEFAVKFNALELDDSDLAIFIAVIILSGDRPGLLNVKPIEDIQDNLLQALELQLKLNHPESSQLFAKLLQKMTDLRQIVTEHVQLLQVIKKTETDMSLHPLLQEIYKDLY
# [3] = target: Vitamin D3 receptor (Homo sapiens) (UniProt P11473); assay: Agonist activity at VP16-VDR expressed in african green monkey CV1 cells co-expressing MH100 by luciferase reporter gene assay; assay type: functional, cell-based; conditions: CV-1
# [4] = target: T3, Estrogen receptor (Homo sapiens) (UniProt P03372); assay: Agonist activity at gal-ERalpha expressed in african green monkey CV1 cells co-expressing MH100 by luciferase reporter gene assay; assay type: functional, cell-based; conditions: CV-1
# T3 sequence (whole entry): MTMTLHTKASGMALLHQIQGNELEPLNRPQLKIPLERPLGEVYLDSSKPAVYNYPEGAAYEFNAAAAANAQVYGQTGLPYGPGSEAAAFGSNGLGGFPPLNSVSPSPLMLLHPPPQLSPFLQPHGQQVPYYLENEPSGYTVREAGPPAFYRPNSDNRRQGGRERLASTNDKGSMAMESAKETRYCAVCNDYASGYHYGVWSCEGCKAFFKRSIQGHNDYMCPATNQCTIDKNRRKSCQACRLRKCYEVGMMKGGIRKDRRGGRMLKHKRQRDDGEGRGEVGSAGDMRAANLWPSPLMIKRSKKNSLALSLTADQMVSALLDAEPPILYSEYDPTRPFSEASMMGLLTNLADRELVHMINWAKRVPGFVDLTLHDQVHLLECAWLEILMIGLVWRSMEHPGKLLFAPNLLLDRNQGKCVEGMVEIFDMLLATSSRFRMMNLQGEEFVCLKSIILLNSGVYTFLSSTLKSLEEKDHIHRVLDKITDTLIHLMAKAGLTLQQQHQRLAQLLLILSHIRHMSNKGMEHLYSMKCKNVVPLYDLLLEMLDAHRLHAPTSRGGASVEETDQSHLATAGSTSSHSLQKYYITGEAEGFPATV
# [5] = target: T4, Androgen receptor (Homo sapiens) (UniProt P10275); assay: Agonist activity at human gal-AR expressed in african green monkey CV1 cells co-expressing MH100 with pGRIP1 co-factor by luciferase reporter gene assay; assay type: functional, cell-based; conditions: CV-1
# T4 sequence (whole entry): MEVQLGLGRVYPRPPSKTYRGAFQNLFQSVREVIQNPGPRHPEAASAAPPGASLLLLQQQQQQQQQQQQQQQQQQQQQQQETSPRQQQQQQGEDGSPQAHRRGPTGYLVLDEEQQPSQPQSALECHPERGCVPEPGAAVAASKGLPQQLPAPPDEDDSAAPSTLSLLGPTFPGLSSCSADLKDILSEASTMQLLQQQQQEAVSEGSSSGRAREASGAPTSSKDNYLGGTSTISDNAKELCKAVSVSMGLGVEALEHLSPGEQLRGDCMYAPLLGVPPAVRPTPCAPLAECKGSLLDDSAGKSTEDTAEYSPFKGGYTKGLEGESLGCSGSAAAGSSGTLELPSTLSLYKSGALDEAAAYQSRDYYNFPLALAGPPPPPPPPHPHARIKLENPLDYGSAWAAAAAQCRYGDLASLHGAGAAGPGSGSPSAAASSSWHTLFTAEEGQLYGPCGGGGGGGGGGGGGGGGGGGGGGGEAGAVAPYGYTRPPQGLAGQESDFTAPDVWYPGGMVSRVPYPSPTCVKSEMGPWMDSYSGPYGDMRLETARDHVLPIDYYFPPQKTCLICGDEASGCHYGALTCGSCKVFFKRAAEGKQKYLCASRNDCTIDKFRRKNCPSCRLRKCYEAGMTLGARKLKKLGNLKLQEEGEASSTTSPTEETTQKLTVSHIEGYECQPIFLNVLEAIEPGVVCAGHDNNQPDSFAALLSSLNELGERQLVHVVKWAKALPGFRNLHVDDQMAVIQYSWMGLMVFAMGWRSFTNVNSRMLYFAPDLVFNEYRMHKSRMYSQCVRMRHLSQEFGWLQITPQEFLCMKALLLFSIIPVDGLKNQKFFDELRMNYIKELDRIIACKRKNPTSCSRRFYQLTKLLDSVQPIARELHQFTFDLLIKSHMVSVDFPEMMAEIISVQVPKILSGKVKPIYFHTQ
# [6] = target: T3, Estrogen receptor (Homo sapiens); assay: Agonist activity at gal-ERalpha expressed in african green monkey CV1 cells co-expressing MH100 up to 10 uM by luciferase reporter gene assay relative to control; assay type: functional, cell-based; conditions: CV-1
# Androgen receptor = Androgen receptor (Homo sapiens, UniProt P10275); assay: Antagonist activity at gal-AR expressed in african green monkey CV1 cells co-expressing MH100 with GRIP1 co-factor by luciferase reporter gene assay; assay type: functional, cell-based, CV-1
# [7] = target: Mineralocorticoid receptor (Homo sapiens, UniProt P08235); assay: Antagonist activity at gal-MR expressed in african green monkey CV1 cells co-expressing MH100 by luciferase reporter gene assay; assay type: functional, cell-based, CV-1
# Mus musculus = assay: Reduction of plasma triglyceride level in C57BL/6 mouse at 10 mg/kg, po administered for 7 days measured after 3 hrs; assay type: ADME, organism-based; set-up: dose 10 mg/kg, route oral; conditions: in vivo
# Mineralocorticoid receptor, sequence (P08235 whole entry): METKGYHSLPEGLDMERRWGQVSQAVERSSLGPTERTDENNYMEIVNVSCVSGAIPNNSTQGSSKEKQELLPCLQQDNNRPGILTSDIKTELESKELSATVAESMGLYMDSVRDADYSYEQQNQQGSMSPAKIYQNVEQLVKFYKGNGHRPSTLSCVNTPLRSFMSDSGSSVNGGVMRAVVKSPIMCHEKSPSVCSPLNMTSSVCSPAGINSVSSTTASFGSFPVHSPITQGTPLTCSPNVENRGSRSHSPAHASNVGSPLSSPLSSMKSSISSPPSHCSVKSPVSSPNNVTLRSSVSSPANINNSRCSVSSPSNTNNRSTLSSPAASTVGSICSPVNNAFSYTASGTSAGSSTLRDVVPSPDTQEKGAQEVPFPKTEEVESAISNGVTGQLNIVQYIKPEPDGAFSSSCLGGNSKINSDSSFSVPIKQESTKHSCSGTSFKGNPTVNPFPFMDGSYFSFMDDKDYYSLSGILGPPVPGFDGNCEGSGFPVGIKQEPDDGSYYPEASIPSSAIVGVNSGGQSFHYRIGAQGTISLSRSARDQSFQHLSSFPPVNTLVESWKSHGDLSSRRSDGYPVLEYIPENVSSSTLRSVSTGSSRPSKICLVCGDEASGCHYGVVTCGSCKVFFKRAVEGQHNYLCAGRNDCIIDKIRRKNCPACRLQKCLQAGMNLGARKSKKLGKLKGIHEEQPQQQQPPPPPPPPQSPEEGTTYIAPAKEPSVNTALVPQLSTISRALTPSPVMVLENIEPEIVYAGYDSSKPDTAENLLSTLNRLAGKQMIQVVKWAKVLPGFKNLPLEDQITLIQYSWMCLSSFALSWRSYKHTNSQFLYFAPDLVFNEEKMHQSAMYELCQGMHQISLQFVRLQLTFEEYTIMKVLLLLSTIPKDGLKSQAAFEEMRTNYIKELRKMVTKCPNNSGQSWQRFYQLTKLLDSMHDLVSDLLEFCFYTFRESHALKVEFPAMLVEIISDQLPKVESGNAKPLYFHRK
# Vitamin D3 receptor (Homo sapiens), sequence (P11473 whole entry): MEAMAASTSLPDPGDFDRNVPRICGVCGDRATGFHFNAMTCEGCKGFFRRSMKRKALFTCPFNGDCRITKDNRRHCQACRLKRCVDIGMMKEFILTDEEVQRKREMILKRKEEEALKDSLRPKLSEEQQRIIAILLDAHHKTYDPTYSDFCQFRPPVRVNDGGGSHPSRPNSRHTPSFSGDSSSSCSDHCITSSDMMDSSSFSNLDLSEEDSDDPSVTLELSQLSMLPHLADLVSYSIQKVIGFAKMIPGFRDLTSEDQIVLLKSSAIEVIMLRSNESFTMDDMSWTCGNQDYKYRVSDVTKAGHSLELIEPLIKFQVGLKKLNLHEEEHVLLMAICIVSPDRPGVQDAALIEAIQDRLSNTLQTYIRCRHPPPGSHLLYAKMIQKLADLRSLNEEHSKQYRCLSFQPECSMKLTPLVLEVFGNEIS
structure (smiles),measurement,setting,value
CC(C)OC(=O)C1=CN(C(=O)c2ccc(F)c(F)c2)CC(C)(C)c2c1[nH]c1ccccc21 [TUROFEXORATE ISOPROPYL],Activity,[1],inactive
same,Activity,[2],inactive
same,Activity,[3],inactive
same,Activity,[4],inactive
same,Activity,[5],inactive
same,Activity,[6],inactive
same,IC50,Androgen receptor,10 µM
same,IC50,[7],10 µM
same,Activity,Mus musculus,62 mg/dL
